Results reported in patent US20060223996A1, “IL-12 modulatory compounds” (Synta Pharmaceuticals Corp., priority 2004, published 2006).

Tested on: IL-12
Experiment: Human in vitro assay: inhibition of IL-12 production in IFNγ/LPS- or IFNγ/SAC-stimulated human PBMC or THP-1 cells (ELISA)
Format: cell-based
Settings: read-out: IC50 Range (representative in vitro IC50 data)
From the text: The biological activities of a heterocyclic compound can be evaluated by a number of cell-based assays. One of such assays can be conducted using cells from human peripheral blood mononuclear cells (PBMC) or human monocytic cell line (THP-1). The cells are stimulated with a combination of human interferon-γ (IFNγ) and lipopolysaccharide or a combination of IFNγ and Staphylococcus aureus Cowan I in the presence of a test compound. The level of inhibition of IL-12 production can be measured by determining the amount of p70 by using a sandwich ELISA assay with anti-human IL-12 antibodies. IC50 of the test compound can then be determined. Specifically, PBMC or THP-1 cells are incubated with the test compound. Cell viability was assessed using the bioreduction of MTS [3-(4,5-dimethylthiazol-2-yl)-5-(3-carboxymethoxyphenyl)-2-(4-sulfophenyl)-2H-tetrazolium](Promega, Madison, Wis.).
Human In Vitro Assay. Human PBMC were isolated by centrifugation using Ficoll-Paque (Pharmacia Biotech, Uppsala, Sweden) and prepared in RPMI medium supplemented with 10% fetal calf serum (FCS), 100 U/mL penicillin, and 100 μg/mL streptomycin. PBMC were plated in wells of a 96-well plate at a concentration of 5×10^5 cells/well, and primed by adding IFNγ (30 U/mL) for 22 h and stimulated by adding LPS (1 μg/mL), or by adding IFNγ (100 U/mL) and then stimulated by adding SAC (0.01%). A test pyrimidine compound was dissolved in DMSO, and added to wells of the 96-well plate. The final DMSO concentration was adjusted to 0.25% in all cultures, including the compound-free control. Human THP-1 cells were plated in wells, primed by adding IFNγ (100 U/mL) for 22 h and stimulated by adding SAC (0.025%) in the presence of different concentrations of the pyrimidine compound. Cell-free supernatants were taken 18 h later for measurement of cytokines. Cell viability was assessed using the bioreduction of MTS. Cell survival was estimated by determining the ratio of the absorbance in compound-treated groups versus compound-free control.
The supernatant was assayed for the amount of IL-12p40, IL-12p70, or IL-10 by using a sandwich ELISA with anti-human antibodies, i.e., a Human IL-12 p40 ELISA kit from R&D Systems (Berkeley, Calif.), and a Human IL-12 p70 or IL-10 ELISA kit from Endogen (Cambridge, Mass.). Assays were based on the manufacturer's instructions.
The biological activities of pyrimidine compounds were tested on human PBMC or THP-1 cells.

Structure (SMILES) | IC50 [nM]
CNCCOc1cc(C(=O)Nc2ccc3c(c2)c(C)c(C)n3C)nc(N2CCOCC2)n1 [Compound 286, 6-(2-Methylamino-ethoxy)-2-morpholin-4-yl-pyrimidine-4-carboxylic acid (1,2,3-trimethyl-1H-indol-5-yl)-amide] | < 1000
Cc1[nH]c2ccc(NC(=O)c3cc(N4CCC(O)CC4)nc(N4CCOCC4)n3)cc2c1C [Compound 173, 6-(4-Hydroxy-piperidin-1-yl)-2-morpholin-4-yl-pyrimidine-4-carboxylic acid (2,3-dimethyl-1H-indol-5-yl)-amide] | < 1000
O=C(Nc1cccc(Br)c1)Nc1cc(N2CCOCC2)nc(OCCN2CCOCC2)n1 [Compound 118] | < 1000
CON(CCN1CCOCC1)c1cc(C(=O)Nc2ccc3[nH]c(C)c(C)c3c2)nc(N2CCOCC2)n1 [Compound 195, N-(2,3-dimethyl-1H-indol-5-yl)-6-(methoxy(2-morpholinoethyl)amino)-2-morpholinopyrimidine-4-carboxamide] | < 1000
Cc1cccc(NNC(=O)c2cc(N3CCOCC3)nc(OCCN3CCOCC3)n2)c1 [Compound 80, 6-Morpholin-4-yl-2-(2-morpholin-4-yl-ethoxy)-pyrimidine-4-carboxylic acid N′-m-tolyl-hydrazide] | < 1000
Cc1nccc(-c2cccc(NC(=O)c3cc(OCCN4CCOCC4)nc(N4CCOCC4)n3)c2)n1 [Compound 170, 2-Morpholin-4-yl-6-(2-morpholin-4-yl-ethoxy)-pyrimidine-4-carboxylic acid [3-(2-methyl-pyrimidin-4-yl)-phenyl]-amide] | ≥ 1000
Cc1ccc2nc(NC(=O)c3cc(N4CCOCC4)nc(OCCc4ccccn4)n3)sc2c1 [Compound 64, 6-Morpholin-4-yl-2-(2-pyridin-2-yl-ethoxy)-pyrimidine-4-carboxylic acid (6-methyl-benzothiazol-2-yl)-amide] | ≥ 1000
O=C(Nc1cc(OCCN2CCOCC2)nc(N2CCOCC2)n1)Nc1nnc(C2CC2)s1 [Compound 141, 1-(5-Cyclopropyl-[1,3,4]thiadiazol-2-yl)-3-[2-morpholin-4-yl-6-(2-morpholin-4-yl-ethoxy)-pyrimidin-4-yl]-urea] | ≥ 1000
Cc1cccc(N(C)C(=O)Nc2cc(N3CCOCC3)nc(OCCc3ccccn3)n2)c1 [Compound 69, 1-Methyl-3-[6-morpholin-4-yl-2-(2-pyridin-2-yl-ethoxy)-pyrimidin-4-yl]-1-m-tolyl-urea] | ≥ 1000
COCCNC(=O)CNc1cc(C(=O)Nc2ccc3[nH]c(C)c(C)c3c2)nc(N2CCOCC2)n1 [Compound 98, 6-{[(2-Methoxy-ethylcarbamoyl)-methyl]-amino}-2-morpholin-4-yl-pyrimidine-4-carboxylic acid (2,3-dimethyl-1H-indol-5-yl)-amide] | < 1000
CCn1ccc2ccc(NC(=O)c3cc(OCCN4CCOCC4)nc(N4CCOCC4)n3)cc21 [Compound 220, N-(1-ethyl-1H-indol-6-yl)-2-morpholino-6-(2-morpholinoethoxy)pyrimidine-4-carboxamide] | < 1000
C/C(=N\N(C)C)c1cccc(NC(=O)c2cc(OCCN3CCOCC3)nc(N3CCOCC3)n2)c1 [Compound 153, (E)-N-(3-(1-(2,2-dimethylhydrazono)ethyl)phenyl)-2-morpholino-6-(2-morpholinoethoxy)pyrimidine-4-carboxamide] | < 1000
COCCN(C)c1cc(C(=O)Nc2cccc(N(C)C(C)=O)c2)nc(N2CCOCC2)n1 [Compound 166, 6-[(2-Methoxy-ethyl)-methyl-amino]-2-morpholin-4-yl-pyrimidine-4-carboxylic acid [3-(acetyl-methyl-amino)-phenyl]-amide] | ≥ 1000
Cc1cccc(NC(=O)C(=O)Nc2cc(OCCc3ccccn3)nc(N3CCOCC3)n2)c1 [Compound 85, N-[2-Morpholin-4-yl-6-(2-pyridin-2-yl-ethoxy)-pyrimidin-4-yl]-N′-m-tolyl-oxalamide] | ≥ 1000
COCCN(C)c1cc(C(=O)Nc2cc(-c3ccc(Cl)cc3)nn2C)nc(N2CCOCC2)n1 [Compound 227, 6-[(2-Methoxy-ethyl)-methyl-amino]-2-morpholin-4-yl-pyrimidine-4-carboxylic acid [5-(4-chloro-phenyl)-2-methyl-2H-pyrazol-3-yl]-amide] | ≥ 1000
NC(=O)c1cccc(NC(=O)c2cc(OCCN3CCOCC3)nc(N3CCOCC3)n2)c1 [Compound 25, 2-Morpholin-4-yl-6-(2-morpholin-4-yl-ethoxy)-pyrimidine-4-carboxylic acid (3-carbamoyl-phenyl)-amide] | < 1000
Cc1[nH]c2c(NC(=O)c3cc(OCCN4CCOCC4)nc(N4CCOCC4)n3)cccc2c1C [Compound 41, 2-Morpholin-4-yl-6-(2-morpholin-4-yl-ethoxy)-pyrimidine-4-carboxylic acid (2,3-dimethyl-1H-indol-7-yl)-amide] | ≥ 1000
O=C(Nc1cc(-c2cccs2)[nH]n1)c1cc(OCCN2CCOCC2)nc(N2CCOCC2)n1 [Compound 45, 2-Morpholin-4-yl-6-(2-morpholin-4-yl-ethoxy)-pyrimidine-4-carboxylic acid (5-thiophen-2-yl-1H-pyrazol-3-yl)-amide] | ≥ 1000
CCOC(=O)C1CCN(c2cc(C(=O)Nc3ccc4[nH]c(C)c(C)c4c3)nc(N3CCOCC3)c2)CC1 [Compound 176, 2′-(2,3-Dimethyl-1H-indol-5-ylcarbamoyl)-6′-morpholin-4-yl-3,4,5,6-tetrahydro-2H-[1,4′]bipyridinyl-4-carboxylic acid ethyl ester] | < 1000
COCCN(C)c1cc(C(=O)Nc2ccc3[nH]c(C)c(C)c3c2)nc(N2CCOCC2)c1 [Compound 158, 4-[(2-Methoxy-ethyl)-methyl-amino]-6-morpholin-4-yl-pyridine-2-carboxylic acid (2,3-dimethyl-1H-indol-5-yl)-amide] | < 1000
O=C(Nc1ccc2c(c1)NCCC2)c1cc(OCCN2CCOCC2)nc(N2CCOCC2)n1 [Compound 296, 2-Morpholin-4-yl-6-(2-morpholin-4-yl-ethoxy)-pyrimidine-4-carboxylic acid (1,2,3,4-tetrahydro-quinolin-7-yl)-amide] | ≥ 1000
O=C(Nc1cccc(N2CCCC2)c1)c1cc(OCCN2CCOCC2)nc(N2CCOCC2)n1 [Compound 278, 2-Morpholin-4-yl-6-(2-morpholin-4-yl-ethoxy)-pyrimidine-4-carboxylic acid (3-pyrrolidin-1-yl-phenyl)-amide] | < 1000
O=C(Nc1cc(OCCN2CCOCC2)nc(N2CCOCC2)n1)Nc1ccccc1Cl [Compound 132, 1-(2-Chloro-phenyl)-3-[2-morpholin-4-yl-6-(2-morpholin-4-yl-ethoxy)-pyrimidin-4-yl]-urea] | < 1000
CONc1cc(C(=O)Nc2cccc(N(C)C)c2)nc(N2CCOCC2)c1 [Compound 160, 4-Methoxyamino-6-morpholin-4-yl-pyridine-2-carboxylic acid (3-dimethylamino-phenyl)-amide] | < 1000
Cc1ccc(N)c(NC(=O)c2cc(OCCN3CCOCC3)nc(N3CCOCC3)n2)c1 [Compound 272, 2-Morpholin-4-yl-6-(2-morpholin-4-yl-ethoxy)-pyrimidine-4-carboxylic acid (2-amino-5-methyl-phenyl)-amide] | ≥ 1000
Cc1cccc(NNC(=O)c2cc(OCCc3ccccn3)nc(N3CCOCC3)n2)c1 [Compound 79, 2-Morpholin-4-yl-6-(2-pyridin-2-yl-ethoxy)-pyrimidine-4-carboxylic acid N′-m-tolyl-hydrazide] | ≥ 1000
CN(C)c1cccc(NC(=O)c2cc(OCCN3CCOCC3)nc(N3CCOCC3)n2)c1 [Compound 26, 2-Morpholin-4-yl-6-(2-morpholin-4-yl-ethoxy)-pyrimidine-4-carboxylic acid (3-dimethylamino-phenyl)-amide] | < 1000
COCCN(C)c1cc(C(=O)Nc2ccc(N3CCOCC3)c(C(N)=O)c2)nc(N2CCOCC2)n1 [Compound 234, 6-[(2-Methoxy-ethyl)-methyl-amino]-2-morpholin-4-yl-pyrimidine-4-carboxylic acid (3-carbamoyl-4-morpholin-4-yl-phenyl)-amide] | ≥ 1000
CN1CCc2ccc(NC(=O)c3cc(OCCN4CCOCC4)nc(N4CCOCC4)n3)cc21 [Compound 214, N-(1-methylindolin-6-yl)-2-morpholino-6-(2-morpholinoethoxy)pyrimidine-4-carboxamide] | < 1000
Cc1[nH]c2ccc(NC(=O)c3cc(O)nc(N4CCOCC4)n3)cc2c1C [Compound 254, N-(2,3-dimethyl-1H-indol-5-yl)-6-hydroxy-2-morpholinopyrimidine-4-carboxamide] | < 1000
